Results: patent publication US12398120B2, “Substituted hydantoinamides as ADAMTS7 antagonists” (BAYER AKTIENGESELLSCHAFT, priority 2019, dated 2025)

Biological target: ADAMTS4 (Homo sapiens (Human), UniProt O75173)
Assay: Selectivity assay for ADAMTS-7 modulators: ADAMTS4 (FRET substrate)
Format: biochemical
Conditions: ADAMTS4 (R&D 4307-AD) 50 nM, substrate Dabcyl-EEVKAKVQPY-Glu(Edans)-NH2 1 μM, 120 min, 32° C.
In short: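 Activity read as rising fluorescence after a FRET substrate is cleaved by human ADAMTS4, with reactions started by substrate addition to wells holding compound or DMSO. Percent inhibition plotted against concentration gave IC50.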

Chain of ADAMTS4 (O75173 213-685): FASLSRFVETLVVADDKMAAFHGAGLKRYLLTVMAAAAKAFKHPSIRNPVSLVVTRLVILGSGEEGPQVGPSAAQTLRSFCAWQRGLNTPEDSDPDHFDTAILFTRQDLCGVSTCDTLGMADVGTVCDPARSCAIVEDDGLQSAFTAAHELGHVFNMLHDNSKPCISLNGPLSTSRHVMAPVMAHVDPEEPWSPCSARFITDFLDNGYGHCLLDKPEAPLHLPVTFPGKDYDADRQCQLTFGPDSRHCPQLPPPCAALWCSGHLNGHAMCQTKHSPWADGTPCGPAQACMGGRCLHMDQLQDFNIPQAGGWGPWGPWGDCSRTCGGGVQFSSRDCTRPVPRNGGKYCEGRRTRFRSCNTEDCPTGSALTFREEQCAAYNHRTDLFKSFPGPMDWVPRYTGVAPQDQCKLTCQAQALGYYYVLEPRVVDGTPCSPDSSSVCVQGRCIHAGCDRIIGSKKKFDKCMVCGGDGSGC

Row | IC50 | SMILES
1 | 16 µM | O=C1NC(=O)C(CNC(=O)c2ccc(F)cc2-c2ccc(C(F)(F)F)cc2)(C2(Cl)CC2)N1 (racemic) [Example 282, Rac-N-{[4-(1-Chlorocyclopropyl)-2,5-Dioxoimidazolidin-4-Yl]Methyl}-5-Fluoro-4′-(Trifluoromethyl)[Biphenyl]-2-Carboxamide]
2 | 6.3 µM | Cn1cncc1C1(CNC(=O)c2ccccc2-c2ccc(C(F)(F)F)cc2)NC(=O)NC1=O (racemic) [Example 283, Rac-N-{[4-(1-Methyl-1H-Imidazol-5-Yl)-2,5-Dioxoimidazolidin-4-Yl]Methyl}-4′-(Trifluoromethyl)[Biphenyl]-2-Carboxamide]
3 | 8.5 µM | Cn1cncc1C1(CNC(=O)c2ccc(F)cc2-c2ccc(C(F)(F)F)cc2)NC(=O)NC1=O (racemic) [Example 284, Rac-5-Fluoro-N-{[4-(1-Methyl-1H-Imidazol-5-Yl)-2,5-Dioxoimidazolidin-4-Yl]Methyl}-4′-(Trifluoromethyl)[Biphenyl]-2-Carboxamide]
4 | 6.6 µM | Cn1cncc1C1(CNC(=O)c2ccccc2-c2ccc(C(F)(F)F)nc2)NC(=O)NC1=O (racemic) [Example 285, Rac-N-{[4-(1-Methyl-1H-Imidazol-5-Yl)-2,5-Dioxoimidazolidin-4-Yl]Methyl}-2-[6-(Trifluoromethyl)Pyridin-3-Yl]Benzamide]
5 | 9.8 µM | Cc1ncn(C)c1C1(CNC(=O)c2ccc(F)cc2-c2ccc(C(F)(F)F)cc2)NC(=O)NC1=O (racemic) [Example 286, Rac-N-{[4-(1,4-Dimethyl-1H-Imidazol-5-Yl)-2,5-Dioxoimidazolidin-4-Yl]Methyl}-5-Fluoro-4′-(Trifluoromethyl)[Biphenyl]-2-Carboxamide]
6 | 21 µM | Cn1nc2ccccc2c1C1(CNC(=O)c2ccc(F)cc2-c2ccc(C(F)(F)F)cc2)NC(=O)NC1=O (racemic) [Example 288, Rac-5-Fluoro-N-{[4-(2-Methyl-2H-Indazol-3-Yl)-2,5-Dioxoimidazolidin-4-Yl]Methyl}-4′-(Trifluoromethyl)[Biphenyl]-2-Carboxamide]
7 | > 50 µM | O=C1NC(=O)C(CNC(=O)c2ccc(F)cc2-c2ccc(C(F)(F)F)cc2)(C23CC(F)(C2)C3)N1 (racemic) [Example 293, Rac-5-Fluoro-N-{[4-(3-Fluorobicyclo[1.1.1]Pentan-1-Yl)-2,5-Dioxoimidazolidin-4-Yl]Methyl}-4′-(Trifluoromethyl)[Biphenyl]-2-Carboxamide]
8 | > 50 µM | O=C1NC(=O)C(CNC(=O)c2ccc(F)c(F)c2-c2ccc(C(F)(F)F)cc2)(C23CC(F)(C2)C3)N1 (racemic) [Example 295, Rac-5,6-Difluoro-N-{[4-(3-Fluorobicyclo[1.1.1]Pentan-1-Yl)-2,5-Dioxoimidazolidin-4-Yl]Methyl}-4′-(Trifluoromethyl)[Biphenyl]-2-Carboxamide]
9 | 19 µM | O=C1NC(=O)C(CNC(=O)c2cccc(F)c2-c2ccc(C(F)(F)F)cc2)(C2(F)CC2)N1 (racemic) [Example 299, Rac-6-Fluoro-N-{[4-(1-Fluorocyclopropyl)-2,5-Dioxoimidazolidin-4-Yl]Methyl}-4′-(Trifluoromethyl)[Biphenyl]-2-Carboxamide]
10 | 38 µM | Cc1sc(C(F)(F)F)nc1C1(CNC(=O)c2ccc(F)cc2-c2ccc(C(F)(F)F)cc2)NC(=O)NC1=O (racemic) [Example 303, Rac-5-Fluoro-N-({4-[5-Methyl-2-(Trifluoromethyl)-1,3-Thiazol-4-Yl]-2,5-Dioxoimidazolidin-4-Yl}Methyl)-4′-(Trifluoromethyl)[Biphenyl]-2-Carboxamide]
11 | 3.3 µM | Cc1c(C2(CNC(=O)c3ccc(F)cc3-c3ccc(C(F)(F)F)cc3)NC(=O)NC2=O)ncn1C (racemic) [Example 304, Rac-N-{[4-(1,5-Dimethyl-1H-Imidazol-4-Yl)-2,5-Dioxoimidazolidin-4-Yl]Methyl}-5-Fluoro-4′-(Trifluoromethyl)[Biphenyl]-2-Carboxamide]
12 | 28 µM | Cc1cc(C2(CNC(=O)c3ccc(F)c(F)c3-c3ccc(C(F)(F)F)cc3)NC(=O)NC2=O)nn1C (racemic) [Example 305, Rac-N-{[4-(1,5-Dimethyl-1H-Pyrazol-3-Yl)-2,5-Dioxoimidazolidin-4-Yl]Methyl}-5,6-Difluoro-4′-(Trifluoromethyl)[Biphenyl]-2-Carboxamide]
13 | 16 µM | Cc1nscc1C1(CNC(=O)c2ccc(F)c(F)c2-c2ccc(C(F)(F)F)cc2)NC(=O)NC1=O (racemic) [Example 306, Rac-5,6-Difluoro-N-{[4-(3-Methyl-1,2-Thiazol-4-Yl)-2,5-Dioxoimidazolidin-4-Yl]Methyl}-4′-(Trifluoromethyl)[Biphenyl]-2-Carboxamide]
14 | 23 µM | Cn1ccc(C2(CNC(=O)c3ccc(F)c(F)c3-c3ccc(C(F)(F)F)cc3)NC(=O)NC2=O)n1 (racemic) [Example 307, Rac-5,6-Difluoro-N-{[4-(1-Methyl-1H-Pyrazol-3-Yl)-2,5-Dioxoimidazolidin-4-Yl]Methyl}-4′-(Trifluoromethyl)[Biphenyl]-2-Carboxamide]
15 | 1.3 µM | O=C1NC(=O)C(CNC(=O)c2ccc(F)c(F)c2-c2ccc(C(F)(F)F)cc2)(c2ccnn2-c2ccccc2)N1 (racemic) [Example 315, Rac-N-{[2,5-Dioxo-4-(1-Phenyl-1H-Pyrazol-5-Yl)Imidazolidin-4-Yl]Methyl}-5,6-Difluoro-4′-(Trifluoromethyl)[Biphenyl]-2-Carboxamide]
16 | 12 µM | Cc1c(C2(CNC(=O)c3ccc(F)c(F)c3-c3ccc(C(F)(F)F)cc3)NC(=O)NC2=O)cnn1C (racemic) [Example 316, Rac-N-{[4-(1,5-Dimethyl-1H-Pyrazol-4-Yl)-2,5-Dioxoimidazolidin-4-Yl]Methyl}-5,6-Difluoro-4′-(Trifluoromethyl)[Biphenyl]-2-Carboxamide]
17 | > 50 µM | Cc1scnc1C1(CNC(=O)c2ccccc2-c2ccc(C(F)(F)F)cc2)NC(=O)NC1=O (single isomer, unassigned) [Example 2, Ent-N-{[4-(5-Methyl-1,3-Thiazol-4-Yl)-2,5-Dioxoimidazolidin-4-Yl]Methyl}-4′-(Trifluoromethyl)[Biphenyl]-2-Carboxamide]
18 | 4.8 µM | Cc1scnc1C1(CNC(=O)c2ccccc2-c2ccc(C(F)(F)F)cc2)NC(=O)NC1=O (single isomer, unassigned) [Example 3, Ent-N-{[4-(5-Methyl-1,3-Thiazol-4-Yl)-2,5-Dioxoimidazolidin-4-Yl]Methyl}-4′-(Trifluoromethyl)[Biphenyl]-2-Carboxamide]
19 | 13 µM | Cc1ccc(C(=O)NC[C@@]2(C3CC3)NC(=O)NC2=O)c(-c2ccc(C3CC3(F)F)cc2)c1 (single isomer, unassigned) [Example 137]
20 | 4.9 µM | Cc1ccc(C(=O)NC[C@@]2(C3CC3)NC(=O)NC2=O)c(-c2ccc(C3CC3(F)F)cc2)c1 (single isomer, unassigned) [Example 138]
21 | 3.75 µM | Cn1ccnc1C1(CNC(=O)c2c(F)cccc2-c2ccc(C(F)(F)F)cc2)NC(=O)NC1=O (single isomer, unassigned; ent-3) [Example 159, Ent-3-Fluoro-N-{[4-(1-Methyl-1H-Imidazol-2-Yl)-2,5-Dioxoimidazolidin-4-Yl]Methyl}-4′-(Trifluoromethyl)[Biphenyl]-2-Carboxamide]
22 | 24 µM | Cn1nccc1C1(CNC(=O)c2c(F)cccc2-c2ccc(C(F)(F)F)cc2)NC(=O)NC1=O (single isomer, unassigned; ent-3) [Example 186, Ent-3-Fluoro-N-{[4-(1-Methyl-1H-Pyrazol-5-Yl)-2,5-Dioxoimidazolidin-4-Yl]Methyl}-4′-(Trifluoromethyl)[Biphenyl]-2-Carboxamide]
23 | 3.65 µM | Cn1nccc1C1(CNC(=O)c2c(Cl)cccc2-c2ccc(Cl)cc2)NC(=O)NC1=O (single isomer, unassigned; ent-3) [Example 189, Ent-3,4′-Dichloro-N-{[4-(1-Methyl-1H-Pyrazol-5-Yl)-2,5-Dioxoimidazolidin-4-Yl]Methyl}[Biphenyl]-2-Carboxamide]
24 | 11 µM | Cn1nccc1C1(CNC(=O)c2ccccc2-c2ccc(Cl)c(Cl)c2)NC(=O)NC1=O (single isomer, unassigned; ent-3) [Example 311, Ent-3′,4′-Dichloro-N-{[4-(1-Methyl-1H-Pyrazol-5-Yl)-2,5-Dioxoimidazolidin-4-Yl]Methyl}[Biphenyl]-2-Carboxamide]
25 | 4.8 µM | Cc1ncsc1C1(CNC(=O)c2ccccc2-c2ccc(Cl)cc2)NC(=O)NC1=O (single isomer, unassigned; ent-4) [Example 9, Ent-4′-Chloro-N-{[4-(4-Methyl-1,3-Thiazol-5-Yl)-2,5-Dioxoimidazolidin-4-Yl]Methyl}[Biphenyl]-2-Carboxamide]
26 | 5.9 µM | Cc1ncsc1C1(CNC(=O)c2cc(F)ccc2-c2ccc(C(F)(F)F)cc2)NC(=O)NC1=O (single isomer, unassigned; ent-4) [Example 11, Ent-4-Fluoro-N-{[4-(4-Methyl-1,3-Thiazol-5-Yl)-2,5-Dioxoimidazolidin-4-Yl]Methyl}-4′-(Trifluoromethyl)[Biphenyl]-2-Carboxamide]
27 | 7.1 µM | Cc1scnc1C1(CNC(=O)c2cc(F)c(F)cc2-c2ccc(C(F)(F)F)cc2)NC(=O)NC1=O (single isomer, unassigned; ent-4) [Example 17, Ent-4,5-Difluoro-N-{[4-(5-Methyl-1,3-Thiazol-4-Yl)-2,5-Dioxoimidazolidin-4-Yl]Methyl}-4′-(Trifluoromethyl)[Biphenyl]-2-Carboxamide]
28 | 41 µM | Cc1scnc1C1(CNC(=O)c2cc(Cl)ccc2-c2ccc(C(F)(F)F)cc2)NC(=O)NC1=O (single isomer, unassigned; ent-4) [Example 18, Ent-4-Chloro-N-{[4-(5-Methyl-1,3-Thiazol-4-Yl)-2,5-Dioxoimidazolidin-4-Yl]Methyl}-4′-(Trifluoromethyl)[Biphenyl]-2-Carboxamide]
29 | 1.4 µM | Cc1ccc(-c2c(C)cccc2C(=O)NCC2(c3nccn3C)NC(=O)NC2=O)cc1 (single isomer, unassigned; ent-4) [Example 134, Ent-4′,6-Dimethyl-N-{[4-(1-Methyl-1H-Imidazol-2-Yl)-2,5-Dioxoimidazoidin-4-Yl]Methyl}[1,1′-Biphenyl]-2-Carboxamide]
